Source: ChEMBL document CHEMBL3045510, “Phyllostoxin and phyllostin, bioactive metabolites produced by Phyllosticta cirsii, a potential mycoherbicide for Cirsium arvense biocontrol” (J Agric Food Chem, 2008)
Calls of active or inactive are those of the source. The calls are words filed in the database; no cut-off is given here.

What was measured:
[1] = system: Escherichia coli; test: Antimicrobial activity against Escherichia coli up to 100 ug/disk; type: functional, organism-based
[2] = system: Geotrichum candidum; test: Antimicrobial activity against Galactomyces geotrichum up to 100 ug/disk; type: functional, organism-based
[3] = system: Lactobacillus sp.; test: Antimicrobial activity against Lactobacillus sp. up to 100 ug/disk; type: functional, organism-based
[4] = system: Artemia salina; test: Toxicity against Artemia salina (brine shrimp) up to 1 mM; type: organism-based; conditions: in vivo
[5] = system: Cirsium arvense; test: Herbicidal activity against Cirsium arvense (Canada thistle) assessed induction of necrosis on leaves as 1 mM; type: functional, organism-based

Question: For `COC(=O)C1=C[C@@H](O)[C@@H]2OC(=O)[C@@H](C)O[C@H]2C1` [PHYLLOSTIN], which Activity [1] is on record?
Answer: inactive

Question: And the Activity [2]?
Answer: inactive

Question: And the Activity [3]?
Answer: inactive

Question: And the Activity [4]?
Answer: Non-toxic

Question: And the Activity [5]?
Answer: inactive

Question: `CCC(=O)C1(C)C(=O)c2c1ccc(C)c2OC(C)=O` (stereo not given) [PHYLLOSTOXIN] was tested. Which Activity [1] did it give?
Answer: inactive

Question: What about the Activity [2] of the same molecule?
Answer: inactive

Question: And the Activity [3]?
Answer: inactive

Question: And the Activity [4]?
Answer: Non-toxic

Question: What about the Activity [5] of the same molecule?
Answer: Active
